Consider 13 compounds from patent US20130345419A1, “AZOLE DERIVATIVE” (TAISHO PHARMACEUTICAL CO., LTD., priority 2011, published 2013).

SMILES strings stand for the structures. In brackets after ≈: the same amount, converted by molar mass.

Series [1] addresses T1, human recombinant FKBP12 (Homo sapiens, UniProt P62942).
T1 construct: purchased Sigma F-5398
Put plainly: Test 1: immunophilin FKBP12 rotamase (peptidylprolyl isomerase) inhibiting activity. The note with it: 12 nM human recombinant FKBP12, substrate succinyl-Ala-Phe-Pro-Phe-paranitroanilide 48 μM, 4° C.; read-out: PKBP12 rotamase inhibiting activity IC50. Type of series: biochemical. As to the method:
(Test 1) Test for Measuring Immunophilin FKBP12 Rotamase Activity
The rotamase (peptidylprolyl isomerase) inhibiting activity of each test compound was measured by a known method (Harding et al., Nature 341, 758-760, 1989; Holts et al., J. Am. Chem. Soc. 115, 9925-9938, 1993.) To be more specific, a plastic cuvette was charged with 35 mM HEPES (pH 7.8), 12 nM human recombinant FKBP12 (Sigma, F-5398), 0.4 mg/mL α-chymotrypsin, and a test compound dissolved in DMSO at varying concentrations (DMSO's final concentration was 0.1%.) Subsequently, 24 mM of the substrate peptide, succinyl-Ala-Phe-Pro-Phe-paranitroanilide, as dissolved in trifluoroethanol containing 500 mM of LiCl was added to give a final concentration of 48 μM, whereupon reaction started. The reaction was carried out at 4° C. and the change in absorbance at 390 nm accompanying the liberation of the paranitroaniline product was monitored. A calculated initial rate minus the corresponding value in the absence of the enzyme was used as an index of rotamase activity. The rotamase inhibiting activity of a test compound was expressed in relative values (%) with respect to the control value of rotamase activity in the absence of the compound, and the concentration of the compound at which it was capable of inhibiting rotamase activity by 50% was calculated as an IC50 value from its concentration response curve.

Series [2] deals with proliferating cell nuclear antigen (PCNA). Put plainly: Test 6: anagen induction stimulating effect in shaven mouse model, skin PCNA by ELISA. Type of series: in vivo. The note with it: 5% (w/v) in 80% ethanol, 200 μL once daily for 2 days, skin sampled about 4 hours after second administration, C57BL mice. As to the method: (Test 6) Test for Measuring Anagen Induction Stimulating Effect in Shave Mouse Model
The anagen induction stimulating effect of a compound was measured by the following method with the quantity of skin PCNA being used as an index.
C57BL mice (female, ca. 7-wk old) were shaven on the back and a base (80% ethanol) or a solution prepared by dissolving 5% (w/v) of Compound 40, 52, 59, 61, 63, 64 or 66 in this base was administered by applying them to the shaven area in 200-μL portions once daily for 2 days starting 3 days after the shaving (each group consisting of 5 heads.) About 4 hours after the administration on the second day, the skin at the application site was sampled and homogenized in a buffer containing 50 mM Tris-HCl (pH 7.6), 150 mM NaCl, 1% NP-40, and a protease inhibitor. By a centrifugal separation procedure, a PCNA containing protein solution was prepared and the quantity of PCNA in the solution was measured with a PCNA-ELISA kit of Calbiochem, Inc.
For orientation: ELISA stands for enzyme-linked immunosorbent assay.

Series [3] can be described thus: Test 4: dissolution test in ethanol/water base. The format is physicochemical. The note with it: organic solvent or mixture, thermodynamic from solid; base: 79 mL ethanol, water to 100 mL; stirred at 5° C. for 3 days; HPLC. As to the method: (Test 4) Dissolution Test
To 79 mL of ethanol, water was added to give a total volume of 100 mL, whereby a base was prepared. An excess amount of a test compound was put into a test tube, the prepared base was added, and the mixture was stirred at 5° C. for 3 days and passed through a membrane filter (0.45 μm); the resulting filtrate was diluted with acetonitrile and the concentration of the diluted solution was measured by HPLC to determine the solubility of the compound.

Series [4] concerns C57BL mice. Put plainly: Test 5: hair development stimulating effect in shaven mouse model (Compound 40). The format is in vivo. The note with it: 5% (w/v) solution in Test 4 base, 200 μL on shaven back once daily, day 15 of the administration and onward. An excerpt:
(§1) Criteria for scoring the hair development: 1=No hair development. 2=Hair development in less than 30% of the shaven area. 3=Hair development in at least 30% but less than 60% of the shaven area. 4=Hair development in at least 60% but less than 90% of the shaven area. 5=Hair development in at least 90% of the shaven area.
(Test 5) Test for Measuring Hair Development Stimulating Effect in Shaven Mouse Model
C57BL mice (female, ca. 7-wk old) were shaven on the back and the base prepared in Test 4 or a solution prepared by dissolving 5% (w/v) of Compound 40 in this base was administered by applying them to the shaven area in 200-μL portions once daily starting 3 days after the shaving (each group consisting of 10 heads.) Every 2 or 3 days after the start of the administration, the state of hair development in the shaven area was scored in accordance with the criteria described in Test 3.

The nature of series [5]: Test 2: dissolution test in 1,3-butylene glycol/water/ethanol base. The format is physicochemical. The note with it: base: 5 g 1,3-butylene glycol + 10 g water, ethanol to 100 mL, stirred at 25° C. for 7 days, HPLC. As to the method: (Test 2) Dissolution Test
To 5 g of 1,3-butylene glycol, 10 g of water was added and the mixture was stirred until homogeneity; thereafter, ethanol was added to make a total volume of 100 mL, whereby a base was prepared.

The subject of series [6] is C57BL mice. Put plainly: Test 3: hair development stimulating effect in shaven mouse model (Compound 1). The format is in vivo. The note with it: 5% (w/v) solution in Test 2 base, 200 μL on shaven back once daily, day 15 of the administration and onward. As to the method: (Test 3) Test for Measuring Hair Development Stimulating Effect in Shaven Mouse Model
C57BL mice (female, ca. 7-wk old) were shaven on the back and the base prepared in Test 2 or a solution prepared by dissolving 5% (w/v) of Compound 1 in this base was administered by applying them to the shaven area in 200-μL portions once daily starting 3 days after the shaving (each group consisting of 10 heads.) Every 2 or 3 days after the start of the administration, the state of hair development in the shaven area was scored in accordance with the following criteria.
as §1

T1 sequence (P62942 whole entry): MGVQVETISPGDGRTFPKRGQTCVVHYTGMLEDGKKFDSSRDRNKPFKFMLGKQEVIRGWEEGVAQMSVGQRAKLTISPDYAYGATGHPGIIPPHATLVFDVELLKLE

Consider `CC1(C)CC(C)(C)CC(O)(C(F)(F)C(=O)N2CCC[C@H]2c2cc(COc3ccccc3)on2)C1` [Compound 52, (S)-2,2-Difluoro-2-(1-hydroxy-3,3,5,5-tetramethylcyclohexyl)-1-(2-(5-(phenoxymethyl)isoxazol-3-yl)pyrrolidin-1-yl)ethanone], for which the IC50 in series [1] amounted to 0.204 µM. Further, in series [2], the “quantity of skin PCNA versus base administered group” value is “increases in the quantity of skin PCNA”.

With `CC1(C)CC(C)(C)CC(O)(C(F)(F)C(=O)N2CCC[C@H]2c2cc(COc3ccncn3)on2)C1` [Compound 63, (S)-2,2-Difluoro-2-(1-hydroxy-3,3,5,5-tetramethylcyclohexyl)-1-(2-(5-((pyrimidin-4-yloxy)methyl)isoxazol-3-yl)pyrrolidin-1-yl)ethanone], in series [1], the half-inhibitory concentration (IC50) was 0.185 µM. The “quantity of skin PCNA versus base administered group” value in series [2] is listed as “increases in the quantity of skin PCNA”.

As for `CC1(C)CC(C)(C)CC(O)(C(F)(F)C(=O)N2CCC[C@H]2c2cc(Cn3ccc(=O)nc3)on2)C1` [Compound 61, (S)-1-((3-(1-(2,2-Difluoro-2-(1-hydroxy-3,3,5,5-tetramethylcyclohexyl)acetyl)pyrrolidin-2-yl)isoxazol-5-yl)methyl)pyrimidin-4(1H)-one], the concentration for half-maximal inhibition (IC50) in series [1] was found to be 0.152 µM. Also, in series [2], the “quantity of skin PCNA versus base administered group” value was “increases in the quantity of skin PCNA”.

Turning to `CC1(C)CC(C)(C)CC(O)(C(F)(F)C(=O)N2CCC[C@H]2c2cc(Cn3ccc(=O)cc3)on2)C1` [Compound 66, (S)-1-((3-(1-(2,2-Difluoro-2-(1-hydroxy-3,3,5,5-tetramethylcyclohexyl)acetyl)pyrrolidin-2-yl)isoxazol-5-yl)methyl)pyridin-4(1H)-one], the “skin PCNA levels relative to base administered group” value in series [2] was “approximately 1.4 times”.

As for `CC1(C)CC(C)(C)CC(O)(C(F)(F)C(=O)N2CCC[C@H]2c2cc(COc3cccnc3)on2)C1` [Compound 40, (S)-2,2-Difluoro-2-(1-hydroxy-3,3,5,5-tetramethylcyclohexyl)-1-(2-(5-((pyridin-3-yloxy)methyl)isoxazol-3-yl)pyrrolidin-1-yl)ethanone], in series [3], the solubility at 3 days was 113 mg/mL (≈ 237 mM). Further, in series [1], the half-maximal inhibitory concentration (IC50) came out at 0.083 µM. In series [2], the “quantity of skin PCNA versus base administered group” value was “higher values for the quantity of skin PCNA than the group administered with the base”. Further, the “hair development scores versus base administered group” value in series [4] is “higher than those in the base administered group”.

For the compound `CC1(C)CC(C)(C)CC(O)(C(F)(F)C(=O)N2CCC[C@H]2c2cc(COc3cccc(F)c3)on2)C1` [Compound 64, (S)-2,2-Difluoro-1-(2-(5-((3-fluorophenoxy)methyl)isoxazol-3-yl)pyrrolidin-1-yl)-2-(1-hydroxy-3,3,5,5-tetramethylcyclohexyl)ethanone], the IC50 in series [1] came to 0.182 µM. In series [2], the “quantity of skin PCNA versus base administered group” value is given as “increases in the quantity of skin PCNA”.

On to `COc1ccc(CC(=O)NCc2cc([C@@H]3CCCN3C(=O)C(F)(F)C3(O)CC(C)(C)CC(C)(C)C3)no2)cc1OC` [Compound 51], for which, in series [1], the IC50 was found to be 0.074 µM.

For the compound `COc1ccc(OCc2cc([C@@H]3CCCN3C(=O)C(F)(F)C3(O)CC(C)(C)CC(C)(C)C3)no2)cc1OC` [Compound 1, (S)-1-(2-(5-((3,4-Dimethoxyphenoxy)methyl)isoxazol-3-yl)pyrrolidin-1-yl)-2,2-difluoro-2-(1-hydroxy-3,3,5,5-tetramethylcyclohexyl)ethanone], in series [5] (1,3-butylene glycol/water/ethanol base, organic solvent or mixture, thermodynamic from solid), the solubility at 7 days stood at 57.5 mg/mL. In addition, in series [6], the “hair development scores versus base administered group” value is “higher than those in the base administered group”. The IC50 in series [1] came out at 0.049 µM.

`COc1ccccc1OCc1nnc([C@@H]2CCCN2C(=O)C(F)(F)C2(O)CC(C)(C)CC(C)(C)C2)o1` [Compound 25]: the IC50 in series [1] turned out to be 0.401 µM.

In the case of `CC1(C)CC(C)(C)CC(O)(C(F)(F)C(=O)N2CCC[C@H]2c2cc(COc3cncnc3)on2)C1` [Compound 59], the IC50 in series [1] is 0.124 µM. The “quantity of skin PCNA versus base administered group” value in series [2] was “increases in the quantity of skin PCNA”.

`COc1ccc(Oc2nnc([C@@H]3CCCN3C(=O)C(F)(F)C3(O)CC(C)(C)CC(C)(C)C3)o2)cc1OC` [Compound 28]: in series [1], the IC50 came out at 0.351 µM.

Consider `COc1ccc(OCc2cc([C@@H]3CCCN3S(=O)(=O)CC3CCCCC3)no2)cc1OC` [Compound 43, (S)-3-(1-((Cyclohexylmethyl)sulfonyl)pyrrolidin-2-yl)-5-((3,4-dimethoxyphenoxy)methyl)isoxazole], for which, in series [1], the IC50 was 0.149 µM.

Turning to `COc1ccc(OCc2nc([C@@H]3CCCN3C(=O)C(F)(F)C3(O)CC(C)(C)CC(C)(C)C3)no2)cc1OC` [comparative example, reference compound], the solubility in series [5] was found to be 30.8 mg/mL.

For orientation: IC50 means the point on the concentration scale where inhibition reaches its midpoint. A word on the solubility: it is the dissolved amount per volume that the medium holds.
